Reference: PubChem BioAssay (NCI)
Values joined by “and” are separate entries in the source; they are usually repeats but may differ in a detail not shown here. Identical values can stand only once.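 In this assay, cells in 96-well plates receive the compound at five concentrations for 48 hours. Endpoints are linearly interpolated between the surrounding concentrations. GI50 = concentration required for 50% inhibition of growth. TGI: total growth inhibition.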

Assays:
Assay in all cases: NCI tumour cell line growth inhibition, 48 h
SNB-75 CNS = system: SNB-75 CNS
OVCAR-5 ovarian = system: OVCAR-5 ovarian
NCI/ADR-RES ovarian = system: NCI/ADR-RES ovarian
M14 melanoma = system: M14 melanoma
EKVX NSCLC = system: EKVX NSCLC
CAKI-1 renal = system: CAKI-1 renal
MCF7 breast = system: MCF7 breast
SK-MEL-5 melanoma = system: SK-MEL-5 melanoma
IGROV1 ovarian = system: IGROV1 ovarian
SR leukemia = system: SR leukemia

| SMILES | GI50 (SNB-75 CNS) [µM] | TGI (SNB-75 CNS) | GI50 (OVCAR-5 ovarian) [µM] | TGI (OVCAR-5 ovarian) [µM] | GI50 (NCI/ADR-RES ovarian) [µM] | TGI (NCI/ADR-RES ovarian) [µM] | GI50 (M14 melanoma) [µM] | TGI (M14 melanoma) | GI50 (EKVX NSCLC) [µM] | TGI (EKVX NSCLC) [µM] | GI50 (CAKI-1 renal) [µM] | TGI (CAKI-1 renal) | GI50 (MCF7 breast) | TGI (MCF7 breast) [µM] | GI50 (SK-MEL-5 melanoma) [µM] | TGI (SK-MEL-5 melanoma) | GI50 (IGROV1 ovarian) [µM] | TGI (IGROV1 ovarian) | GI50 (SR leukemia) [µM] | TGI (SR leukemia) [µM] |
| --- | --- | --- | --- | --- | --- | --- | --- | --- | --- | --- | --- | --- | --- | --- | --- | --- | --- | --- | --- | --- |
| CCC(C)n1ncn(-c2ccc(N3CCN(c4ccc(OCC5COC(Cn6cncn6)(c6ccc(Cl)cc6Cl)O5)cc4)CC3)cc2)c1=O (stereo unspecified) | 11.4 | 71.2 µM | 56.3 | > 100 | 26.1 | > 100 | 5.91 | > 100 µM | 1.24 | > 100 | 2.88 | > 100 µM | 22.2 µM | > 100 | 2.75 | > 100 µM | 82.5 | > 100 µM |  |  |
| CCC[CH2][Sn]1([CH2]CCC)[O]N=C(c2ccccc2)C(c2ccccc2)[O]1 (stereo unspecified) | 1.6 | 4.1 µM | 2.84 | 9.31 |  |  | 1.63 | 3.09 µM | 1.16 | 3.01 | 0.97 | 2.4 µM |  |  | 1.62 | 3.23 µM | 1.89 | 3.9 µM | 0.574 | 3.59 |
| CCCCC(C(=O)C(=O)NC1C2CC3CC(C2)CC1C3)C(=O)C(C)C (stereo unspecified) |  | > 100 µM |  | > 100 |  |  |  | > 100 µM |  | > 100 |  | > 100 µM |  |  |  | > 100 µM |  | > 100 µM |  | > 100 |
| COC(=O)C(=Cc1cc(OC)ccc1OC)C(=O)OC |  | 97 µM |  | 61.5 |  |  |  | 36.6 µM |  | 72.2 |  | 43.3 µM |  |  |  | 42.7 µM |  | 56.9 µM |  |  |
| O=C(CCn1[nH]c(=O)c(Cl)c(Cl)c1=O)NO |  | > 100 µM |  | > 100 |  |  |  | > 100 µM |  | > 100 |  | > 100 µM |  |  |  | > 100 µM |  | > 100 µM |  |  |
| Cc1ccc(Cc2c(=O)[nH]nc3ccccc23)cc1 |  | > 100 µM |  | > 100 |  |  |  | > 100 µM |  | > 100 |  | > 100 µM |  |  |  | > 100 µM |  | > 100 µM |  |  |
| Cc1ccc(S(=O)(=O)N(CC(=O)O)c2ccccc2)cc1 |  | > 100 µM |  | > 100 |  |  |  | > 100 µM |  | > 100 |  | > 100 µM |  |  |  | > 100 µM |  | > 100 µM |  |  |
| CC(C)c1ccccc1NC(=O)CCc1n[nH]c(=S)o1 |  | > 100 µM |  | > 100 |  |  |  | > 100 µM |  | > 100 |  | > 100 µM |  |  |  | > 100 µM |  | > 100 µM |  | > 100 |
| CCCCCCCCCCCCOC1C(C(COC2OC(C3COC(C)(C)O3)C3OC(C)(C)OC23)NC(=O)Nc2ccc(C(=O)O)cc2)OC2OC(C)(C)OC21 (stereo unspecified) | 2.47 | 10.8 µM | 2.67 | 6.85 | 10.9 | 24.8 | 2.45 | 6.71 µM | 2.69 | 10.8 | 5.45 | 17.6 µM | 2.84 µM | 10.8 | 1.75 | 3.4 µM | 2.11 | 4.87 µM |  |  |
| CN(C)c1nc2ccccc2[nH]1 |  | > 100 µM |  | > 100 |  |  |  | > 100 µM |  | > 100 |  | > 100 µM |  |  |  | > 100 µM |  | > 100 µM |  |  |
| Cn1c2c(c3ccccc31)C1CCCCCCC1C1C(=O)OC(=O)C21 (stereo unspecified) |  | > 100 µM |  | > 100 |  |  |  | > 100 µM |  | > 100 |  |  |  |  |  | > 100 µM |  | 73.8 µM |  | 87.4 |
| CCOc1ccccc1C=C1c2ccccc2C(=O)c2ccccc21 |  |  |  | > 100 |  |  |  | 64.5 µM |  | 61.4 |  | 6.58 µM |  |  |  | 20.8 µM |  | > 100 µM |  |  |
| CC1=C(C(=O)Nc2ccccc2)C(c2ccccc2)C(C(=O)Nc2ccccc2)=C(C)N1 |  | > 100 µM |  | > 100 |  |  |  | > 100 µM |  | > 100 |  | > 100 µM |  |  |  | > 100 µM |  | > 100 µM |  |  |
| [Cl][Hg][c]1cc(Br)cc(Br)c1 | 1.24 | 3.43 µM | 2.8 | 5.65 | 3.07 | 13.5 | 2.12 | 6.32 µM | 2.21 | 4.78 |  |  |  |  | 1.54 | 3.04 µM | 1.47 | 3.41 µM | 0.866 | 3.52 |
| CN(C)c1ccc(C(C=C2c3ccccc3Sc3ccccc32)=C(C#N)C#N)cc1 |  | 89.9 µM |  | > 100 |  |  |  | > 100 µM |  | > 100 |  | > 100 µM |  |  |  | > 100 µM |  | > 100 µM |  |  |
| CC(C)c1ccc2c(c1)CC[C@@H]1[C@@](C)(C(=O)O)CCC[C@]21C |  |  | 5.49 | 25.6 | 17.8 | 57 | 10.4 | 22.1 µM | 1.82 | 6.94 | 2.93 | 12 µM |  |  | 5.02 | 16.5 µM | 5.55 | 29 µM |  |  |
| O=S1(=O)C[C@H](O)[C@H](O)CS1 |  | > 100 µM |  | > 100 |  |  |  | > 100 µM |  | > 100 |  | > 100 µM |  |  |  | > 100 µM |  | > 100 µM |  | > 100 |
| Cc1nc2c(-c3cnc(N)nc3)nc(N3CCOCC3)nc2n1C(C)C |  | 0.334 µM and 0.272 µM |  | > 3.48 |  | 4.81 |  | 2.12 µM and 5.91 µM |  | 1.81 |  | 1.42 µM and 2.94 µM | 0.0876 µM and 0.0298 µM | > 100 |  | 0.9 µM and 0.652 µM |  | 0.262 µM and 0.286 µM |  |  |
| Cc1ccc(NC(=O)C(=O)C(C(=O)c2ccc3ccccc3c2)C2OC(=O)c3ccccc32)cc1C (stereo unspecified) |  | 7.34 µM |  | 71.3 |  |  |  | 32.2 µM |  | > 100 |  | 43.7 µM |  |  |  | 30 µM |  | 64 µM |  |  |
| COc1ccc(C(=O)C(c2ccc(OC)cc2)C2(O)C(=O)Nc3ccc([N+](=O)[O-])cc32)cc1 (stereo unspecified) |  | > 100 µM |  | > 100 |  |  |  | > 100 µM |  | > 100 |  | > 100 µM |  |  |  |  |  | > 100 µM |  | > 100 |
| Cc1cc(CC(O)c2ccc(Cl)c(Cl)c2)nc(=O)[nH]1 (stereo unspecified) |  | 48.8 µM |  | > 100 |  |  |  | > 100 µM |  | 96.7 |  | 90 µM |  |  |  | > 100 µM |  |  |  | > 100 |
| COC(=O)C1=C(O)c2cc(OC)c(OC)cc2C(c2ccc(OC)c(OC)c2)C1 (stereo unspecified) |  | > 100 µM |  | > 100 |  |  |  | > 100 µM |  | > 100 |  | > 100 µM |  |  |  | > 100 µM |  | > 100 µM |  | > 100 |
| COc1cnc2c(c1)C(=O)c1c-2n(CCCNC(C)C)c(=O)c2cc(Cl)ccc12 | 0.146 | 1.59 µM | 1.7 | 3.5 | 0.301 | 2.75 |  |  |  |  | 0.0652 | 2.15 µM |  |  | 1.14 | 2.38 µM | 0.756 | 2.32 µM | 0.0577 | 0.464 |
